Test results reported in US5334619A, “Inhibition of postharvest fruit decay by 2-nonanone” (priority 1993, dated 1994).

What was measured:
B. cinerea [1] = assay: Treatment of isolated cultures with 2-nonanone vapor; type: cell-based, Botrytis cinerea; details: 7 days, 10° C., 0 = no growth, 4 = media completely covered
Description: (§1) Fungal cultures of A. alternata and B. cinerea were obtained from the Agricultural Research Service, NRRL Culture Collection in Peoria, Ill. […] An isolate of C. gloeosporioides pathogenic on blueberries was obtained from the USDA/ARS Cranberry and Blueberry Research Center, Chatsworth, N.J. All cultures were maintained at 24° C. and 95% relative humidity on V-8 juice agar supplemented with 0.3% CaCO3 and adjusted to pH 5.8. Spores of each fungus were removed from sporulating cultures by carefully brushing the surface of the media with a glass rod and suspending the spores in sterile water. The concentrations of spores in the suspensions were adjusted to concentrations of 10^6 to 10^7 spores/ml. These suspensions were mixed together to form a composite suspension which was used to inoculate all the fruit in a given experiment.
(§2) A bioassay system was developed to test the effects of the volatile compounds on fungal growth both on intact fruit and on V-8 juice medium. The apparatus consisted of 75 ml glass jars into which either fruit or sterilized V-8 juice medium (10 ml) were added. These jars were placed in 275 ml airtight glass jars with aluminum foil cap liners. The bottom of each 275 ml jar was fitted with a 5.5 cm filter paper disk (Whatman No. 1) for application of the appropriate amount of test compound. The total gas headspace in the larger jars after the addition of all components was 250 ml.
(§3) The fungi assayed against included B. cinerea, C. gloeosporioides and A. alternata. The compound was bioassayed as a volatile using the apparatus described in Example 1 by placing 7 mm diameter plugs of mycelia from actively-growing 1 week-old cultures on V-8 juice media in the 75 ml jars, with the appropriate amount (0, 5, 10, 25 or 100 μl ) of compound applied to the filter paper on the bottom of the larger jar. Assuming complete volatilization, these amounts would produce a nonanone concentration within the headspace of 0.02, 0.04, 0.10, and 0.40 μL/ml, respectively. The sealed jars were then placed in a growth chamber in the dark at 10° C. for 7 days. Due to growth of fungi limited to the plug in many cases and the difficulty of accurately measuring the fungal growth in the jars, a rating system was developed as follows: 0, no growth of fungi, including on plug; 1, growth on plug only; 2, small amount of fungal growth on medium; 3, most of medium covered with fungal mycelia; and 4, all of medium covered. The treatment was replicated three times and the data were treated by statistical analysis of variance.

C. gloeosporioides [2] = assay: Radial growth of cultures with 2-nonanone in the growth medium; type: cell-based; details: Colletotrichum gloeosporioides, read-out: Fungal Growth (% of control), C. gloeosporioides
Description: as §1, with “experiment. 2-Nonanone was assayed as a medium component by adding an appropriate amount to cooled V-8 juice media in 9.0 cm plastic petri dishes. Experiments were initiated by placing 7 mm plugs of mycelia in the center of the petri dishes. As the cultures were nearly circular, the radii (from the inoculum plug to one typical point on the growing margin) of the cultures were measured and expressed as a percentage of the control. The treatment was replicated five times and the data were treated by analysis of variance.” for “experiment.”

B. cinerea [3] = assay: as above; type: cell-based; details: Botrytis cinerea, read-out: Fungal Growth (% of control), B. cinerea
Description: as §1, with “experiment. 2-Nonanone was assayed as a medium component by adding an appropriate amount to cooled V-8 juice media in 9.0 cm plastic petri dishes. Experiments were initiated by placing 7 mm plugs of mycelia in the center of the petri dishes. As the cultures were nearly circular, the radii (from the inoculum plug to one typical point on the growing margin) of the cultures were measured and expressed as a percentage of the control. The treatment was replicated five times and the data were treated by analysis of variance.” for “experiment.”

A. alternata [4] = assay: as above; type: cell-based; details: Alternaria alternata, read-out: Fungal Growth (% of control), A. alternata
Description: as §1, with “experiment. 2-Nonanone was assayed as a medium component by adding an appropriate amount to cooled V-8 juice media in 9.0 cm plastic petri dishes. Experiments were initiated by placing 7 mm plugs of mycelia in the center of the petri dishes. As the cultures were nearly circular, the radii (from the inoculum plug to one typical point on the growing margin) of the cultures were measured and expressed as a percentage of the control. The treatment was replicated five times and the data were treated by analysis of variance.” for “experiment.”

[5] = system: composite spore suspension of A. alternata, B. cinerea and C. gloeosporioides on red raspberries; assay: Fungal growth on inoculated raspberry fruit exposed to volatile compounds; details: 0.4 μl/ml vapor, 10 days, 10° C.; mean, 0 = no fungi present, 3 = fruit completely covered by fungal mycelia
Description: as §1
(§4) Untreated red raspberries (cv. `Heritage`) and strawberries (cv. `Ozark Beauty`) were harvested and used the same day. Berries were selected on the basis of uniform size, color, firmness, and absence of evidence of defects or diseases.
(§5) A bioassay system was developed to test the effects of the volatile compounds on fungal growth both on intact fruit and on V-8 juice medium. The apparatus consisted of 75 ml glass jars into which either fruit or sterilized V-8 juice medium (10 ml) were added. […]

[6] = system: strawberries (cv. `Ozark Beauty`); assay: Fruit damage rating of inoculated strawberry fruit exposed to volatile compounds; design: species or system Fragaria ananassa, Duchesne; details: 0.4 μl/ml vapor, 10 days, 10° C.; mean, 0 = intact, undamaged fruit, 3 = whole fruit necrotic and watersoaked
Description: as §4, §2
(§6) Red raspberries and strawberries were rinsed with sterile distilled water and allowed to dry before inoculation. The fruit was sprayed with the spore suspension to runoff. Single red raspberries or strawberries were placed in the 75 ml jars, and 100 μl each of a single test compound was added to the filter paper on the bottom of a 275 ml jar. The 275 ml jar was then sealed. Fruit were kept at 10° C. in the dark for 10 days then rated for development of fungi and for damage to the fruit due to the treatments. […]

C. gloeosporioides [7] = assay: Treatment of isolated cultures with 2-nonanone vapor; type: cell-based, Colletotrichum gloeosporioides; details: 7 days, 10° C., 0 = no growth, 4 = media completely covered
Description: as §1, §2, §3

[8] = system: red raspberries (cv. `Heritage`); assay: Fruit damage rating of inoculated raspberry fruit exposed to volatile compounds; design: species or system Rubus idaeus L.; details: 0.4 μl/ml vapor, 10 days, 10° C.; mean, 0 = intact, undamaged fruit, 3 = whole fruit necrotic and watersoaked
Description: as §4, §2, §6

A. alternata [9] = assay: Treatment of isolated cultures with 2-nonanone vapor; type: cell-based, Alternaria alternata; details: 7 days, 10° C., 0 = no growth, 4 = media completely covered
Description: as §1, §2, §3

rat = details: cited from earlier work
[10] = system: composite spore suspension of A. alternata, B. cinerea and C. gloeosporioides on strawberries; assay: Fungal growth on inoculated strawberry fruit exposed to volatile compounds; details: 0.4 μl/ml vapor, 10 days, 10° C.; mean, 0 = no fungi present, 3 = fruit completely covered by fungal mycelia
Description: as §1, §4, §5

Compound: CCCCCCCC(C)=O [2-Nonanone, 2-nonanone]
- Fungal Growth Rating, B. cinerea (B. cinerea [1]; vapor phase 0.02 μl/ml): 1.0
- Fungal Growth Rating, B. cinerea (B. cinerea [1]; vapor phase 0.04 μl/ml): 0.0
- Fungal Growth Rating, B. cinerea (B. cinerea [1]; vapor phase 0.10 μl/ml): 0.0
- Fungal Growth Rating, B. cinerea (B. cinerea [1]; vapor phase 0.40 μl/ml): 0.0
- activity at 0.01 % (C. gloeosporioides [2]; 0.01% in V-8 juice medium): 100%
- activity at 0.1 % (C. gloeosporioides [2]; 0.10% in V-8 juice medium): 95.7%
- activity at 1 % (C. gloeosporioides [2]; 1.00% in V-8 juice medium): 0%
- activity at 0.01 % (B. cinerea [3]; 0.01% in V-8 juice medium): 100%
- activity at 0.1 % (B. cinerea [3]; 0.10% in V-8 juice medium): 83%
- activity at 1 % (B. cinerea [3]; 1.00% in V-8 juice medium): 0%
- activity at 0.01 % (A. alternata [4]; 0.01% in V-8 juice medium): 85.2%
- activity at 0.1 % (A. alternata [4]; 0.10% in V-8 juice medium): 48.7%
- activity at 1 % (A. alternata [4]; 1.00% in V-8 juice medium): 0%
- Fungal Rating, Raspberry [5]: 0.0
- Fruit damage rating, Strawberry [6]: 1.7
- Fungal Growth Rating, C. gloeosporioides (C. gloeosporioides [7]; vapor phase 0.02 μl/ml): 2.0
- Fungal Growth Rating, C. gloeosporioides (C. gloeosporioides [7]; vapor phase 0.04 μl/ml): 0.6
- Fungal Growth Rating, C. gloeosporioides (C. gloeosporioides [7]; vapor phase 0.10 μl/ml): 0.0
- Fungal Growth Rating, C. gloeosporioides (C. gloeosporioides [7]; vapor phase 0.40 μl/ml): 0.0
- Fruit damage rating, Raspberry [8]: 2.0
- Fungal Growth Rating, A. alternata (A. alternata [9]; vapor phase 0.02 μl/ml): 2.7
- Fungal Growth Rating, A. alternata (A. alternata [9]; vapor phase 0.04 μl/ml): 1.3
- Fungal Growth Rating, A. alternata (A. alternata [9]; vapor phase 0.10 μl/ml): 0.0
- Fungal Growth Rating, A. alternata (A. alternata [9]; vapor phase 0.40 μl/ml): 0.0
- oral rat LD50 (rat): 3200 mg/kg
- Fungal Rating, Strawberry [10]: 0.0
